By inhibition is commonly meant the percentage by which the read-out fell short of the control. Read a low inhibition as a response near the control.

We go through five molecules from ChEMBL document CHEMBL2074182, “Influence of antipsychotic, antiemetic, and Ca(2+) channel blocker drugs on the cellular accumulation of the anticancer drug daunorubicin: P-glycoprotein modulation” (J Pharmacol Exp Ther, 2000).

Format in all cases: functional, cell-based
The target in data set [1] is T1, MDR1 (P-glycoprotein, ABCB1) (Homo sapiens, UniProt P08183). Description: TP_TRANSPORTER: increase in Rhodamine 123 intracellular accumulation (R123: 150 uM, Bepridil: 5 ug/mL) in MDR1-expressing NIH3T3 cells. The conditions noted are these: mouse, probe Rhodamine 123 (150 uM).
The target of data set [2] is T2, ATP-dependent translocase ABCB1 (Homo sapiens, UniProt P08183). As to the kind of experiment: TP_TRANSPORTER: increase in Rhodamine 123 intracellular accumulation (R123: 150 uM, Chlorpromazine: 2.5 ug/mL) in MDR1-expressing NIH3T3 cells. The conditions noted are these: mouse.
Data set [3] addresses T1, MDR1 (P-glycoprotein, ABCB1). As to the kind of experiment: TP_TRANSPORTER: increase in Rhodamine 123 intracellular accumulation (R123: 150 uM, Nicardipine: 2 ug/mL) in MDR1-expressing NIH3T3 cells. The conditions noted are these: mouse, probe Rhodamine 123 (150 uM).
Data set [4] has as its target T2, ATP-dependent translocase ABCB1. Description: TP_TRANSPORTER: increase in Rhodamine 123 intracellular accumulation (R123: 150 uM, Promethazine: 20 ug/mL) in MDR1-expressing NIH3T3 cells. As to conditions: mouse.
Data set [5] has the same target. Description: TP_TRANSPORTER: increase in Rhodamine 123 intracellular accumulation (R123: 150 uM, Prochloperazine: 5 ug/mL) in MDR1-expressing NIH3T3 cells. As to conditions: mouse.

T2 sequence (P08183 whole entry): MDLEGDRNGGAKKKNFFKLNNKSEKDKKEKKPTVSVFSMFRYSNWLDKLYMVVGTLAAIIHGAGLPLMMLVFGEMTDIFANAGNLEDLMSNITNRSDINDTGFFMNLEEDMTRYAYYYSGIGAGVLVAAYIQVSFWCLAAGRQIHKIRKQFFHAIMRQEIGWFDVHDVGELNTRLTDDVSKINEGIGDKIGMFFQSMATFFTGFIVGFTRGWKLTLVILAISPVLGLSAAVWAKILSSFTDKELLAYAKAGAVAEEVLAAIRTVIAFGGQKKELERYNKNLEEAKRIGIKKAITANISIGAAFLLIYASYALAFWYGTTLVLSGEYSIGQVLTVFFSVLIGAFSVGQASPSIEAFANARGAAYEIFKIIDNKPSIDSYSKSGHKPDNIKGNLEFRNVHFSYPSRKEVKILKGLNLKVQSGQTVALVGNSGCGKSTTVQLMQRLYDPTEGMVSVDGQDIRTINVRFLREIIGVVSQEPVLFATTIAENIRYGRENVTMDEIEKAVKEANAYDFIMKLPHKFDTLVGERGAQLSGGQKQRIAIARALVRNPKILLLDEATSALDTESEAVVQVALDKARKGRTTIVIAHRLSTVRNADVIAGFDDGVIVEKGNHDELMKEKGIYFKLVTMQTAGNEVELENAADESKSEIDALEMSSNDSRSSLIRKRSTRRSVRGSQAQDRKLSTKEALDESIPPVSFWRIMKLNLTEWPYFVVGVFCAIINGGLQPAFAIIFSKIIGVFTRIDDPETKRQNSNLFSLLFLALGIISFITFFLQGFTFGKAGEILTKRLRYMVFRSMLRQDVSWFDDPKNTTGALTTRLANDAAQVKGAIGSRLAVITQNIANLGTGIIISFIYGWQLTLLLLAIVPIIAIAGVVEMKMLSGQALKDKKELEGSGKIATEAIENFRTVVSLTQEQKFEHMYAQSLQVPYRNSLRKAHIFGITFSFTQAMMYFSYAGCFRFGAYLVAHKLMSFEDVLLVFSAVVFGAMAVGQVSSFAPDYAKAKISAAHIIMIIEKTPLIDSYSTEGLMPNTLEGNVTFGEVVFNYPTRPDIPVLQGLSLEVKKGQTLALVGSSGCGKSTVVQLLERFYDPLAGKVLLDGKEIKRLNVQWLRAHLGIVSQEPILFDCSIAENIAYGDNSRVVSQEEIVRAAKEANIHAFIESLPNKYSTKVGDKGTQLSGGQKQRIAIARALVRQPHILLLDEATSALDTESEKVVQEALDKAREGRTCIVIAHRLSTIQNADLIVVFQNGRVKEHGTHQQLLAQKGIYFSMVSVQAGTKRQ
T1 sequence (P08183 whole entry): as above

The molecule `CC(C)COCC(CN(Cc1ccccc1)c1ccccc1)N1CCCC1` (stereo not given) [BEPRIDIL] registered an inhibition at 5 ug/mL in data set [1] of 100%.
For `CCCNC(=O)NS(=O)(=O)c1ccc(Cl)cc1` [CHLORPROPAMIDE], the Inhibition result in data set [2] was “inhibitor [at a rough estimate 90 % inhibition]”.
In turn, `COC(=O)C1=C(C)NC(C)=C(C(=O)OCCN(C)Cc2ccccc2)C1c1cccc([N+](=O)[O-])c1` (stereo not given) [NICARDIPINE] showed an inhibition at 2 ug/mL in data set [3] of 100%.
Regarding `CC(CN1c2ccccc2Sc2ccccc21)N(C)C` (stereo not given) [PROMETHAZINE], the Inhibition entry in data set [4] is “inhibitor [(at a rough estimate) 80 % inhibition]”.
On to `CN1CCN(CCCN2c3ccccc3Sc3ccc(Cl)cc32)CC1` [PROCHLORPERAZINE], for which the Inhibition result in data set [5] is “inhibitor [(at a rough estimate) 80 % inhibition]”.
